Source: patent publication US9120774B2 (University of Kansas, priority 2009, dated 2015)
Where two headings read alike, the source gives them in different places.

Key:
Assay type in all cases: cell-based
[1] = system: HCT-116 (colon cancer cells characterized by wild-type p53); experiment: Anti-proliferation activity against HCT-116 cells; conditions: Homo sapiens
Description: (§1) Upon completion of synthesis of library of compounds in Examples 23 and 24, the compounds were evaluated for anti-proliferative activity against SkBr3 (Her2 overexpressing breast cancer cells), MCF-7 (estrogen receptor positive breast cancer cells), HCT-116 (colon cancer cells characterized by wild-type p53), PL45 (pancreatic cancer cells), LNCaP (androgen sensitive prostate cancer cells) and PC-3 (androgen independent prostate cancer cells) cell lines. […] The monosubstituted benzamide variants improved activity.

[2] = system: SkBr3 (Her2 overexpressing breast cancer cells); experiment: Anti-proliferation activity against SkBr3 cells (MTS/PMS); conditions: Homo sapiens, SK-BR-3, n = 3, read-out: IC50 SkBr3
Method in brief: (§2)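 Cells seeded at 2000/well, attached overnight, then exposed to compound at varying concentrations (1% DMSO final) for 72 hours at 37° C. Viable cells read by MTS/PMS, normalised to 1% DMSO as 100% proliferation. IC50 from separate triplicate experiments.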

[3] = system: MCF-7 (estrogen receptor positive breast cancer cells); experiment: Anti-proliferation activity against MCF-7 cells (MTS/PMS); conditions: Homo sapiens, MCF7, n = 3, read-out: IC50 MCF-7
Method in brief: as §2

[4] = system: PL45 (pancreatic cancer cells); experiment: Anti-proliferation activity against PL45 cells
Description: as §1

[5] = system: LNCaP (androgen sensitive prostate cancer cells); experiment: Anti-proliferation activity against LNCaP cells; conditions: Homo sapiens, LNCaP, n = 3, read-out: IC50 LNCaP
Description: as §1
(§3) Cells were maintained in a 1:1 mixture of Advanced DMEM/F12 (Gibco) supplemented with non-essential amino acids, L-glutamine (2 mM), streptomycin (500 ng/mL), penicillin (100 units/mL), and 10% FBS. Cells were grown to confluence in a humidified atmosphere (37° C., 5% CO2), seeded (2000/well, 100 μl) in 96-well plates, and allowed to attach overnight. Compound or GDA at varying concentrations in DMSO (1% DMSO final concentration) was added, and cells were returned to the incubator for 72 hours. At 72 hours, the number of viable cells was determined using an MTS/PMS cell proliferation kit (Promega) per the manufacturer's instructions. Cells incubated in 1% DMSO were used at 100% proliferation, and values were adjusted accordingly. IC50 values were calculated from separate experiments performed in triplicate using GraphPad Prism.

[6] = system: PC-3 (androgen independent prostate cancer cells); experiment: Anti-proliferation activity against PC-3 cells; conditions: Homo sapiens, PC-3, n = 3, read-out: IC50 PC-3
Description: as §1
as §3, with “[…] […]” for “Compound or GDA at varying concentrations in DMSO (1% DMSO final concentration) was added, and cells were returned to the incubator for 72 hours. At 72 hours, the number of viable cells was determined using an MTS/PMS cell proliferation kit (Promega) per the manufacturer's instructions.”

[7] = Table 4, biaryl analogues, n = 3
[8] = Table 5, heterocyclic analogues, n = 3
[9] = Table 5, heterocyclic analogues

Compound | IC50 ([1]; Table 2, n = 3) [µM] | IC50 ([2]; Table 2) [µM] | IC50 ([3]; Table 2) [µM] | IC50 ([4]; Table 2, n = 3) [µM] | IC50 ([5]; Table 2) [µM] | IC50 ([6]; Table 2) [µM] | further results
COc1ccc(C(=O)Nc2cc3ccc(O[C@@H]4OC(C)(C)[C@H](OC)[C@@H](O)[C@H]4O)c(C)c3oc2=O)cc1-c1ccc(O)cc1 [compound 37, N-(7-((2R,3R,4S,5R)-3,4-Dihydroxy-5-methoxy-6,6-dimethyltetrahydro-2H-pyran-2-yloxy)-8-methyl-2-oxo-2H-chromen-3-yl)-4′-hydroxy-6-methoxybiphenyl-3-carboxamide] | – | – | – | – | – | – | IC50 [1, 7]: 1.4 ± 0.1 µM; IC50 ([2]; Table 4, biaryl analogues): 1.6 ± 0.2 µM; IC50 ([3]; Table 4, biaryl analogues): 2.3 ± 0.8 µM; IC50 [4, 7]: 1.9 ± 0.8 µM; IC50 ([5]; Table 4, biaryl analogues): 2.6 ± 0.5 µM; IC50 ([6]; Table 4, biaryl analogues): 22.3 ± 3.6 µM
CO[C@@H]1[C@@H](O)[C@@H](O)[C@H](Oc2ccc3cc(NC(=O)c4cc5ccccc5o4)c(=O)oc3c2C)OC1(C)C [compound 43, N-(7-((2R,3R,4S,5R)-3,4-Dihydroxy-5-methoxy-6,6-dimethyltetrahydro-2H-pyran-2-yloxy)-8-methyl-2-oxo-2H-chromen-3-yl)benzofuran-2-carboxamide] | – | – | – | – | – | – | IC50 [1, 8]: 9.6 ± 0.3 µM; IC50 [3, 9]: 28.6 ± 4.1 µM; IC50 [4, 8]: 3.8 ± 0.4 µM; IC50 [5, 9]: 7.9 ± 1.1 µM; IC50 [6, 9]: 18.8 ± 4.4 µM
COc1ccc(-c2cc(C(=O)Nc3cc4ccc(O[C@@H]5OC(C)(C)[C@H](OC)[C@@H](O)[C@H]5O)c(C)c4oc3=O)ccc2OC)cc1 [compound 34, N-(7-((2R,3R,4S,5R)-3,4-Dihydroxy-5-methoxy-6,6-dimethyltetrahydro-2H-pyran-2-yloxy)-8-methyl-2-oxo-2H-chromen-3-yl)-4′,6-dimethoxybiphenyl-3-carboxamide] | – | – | – | – | – | – | IC50 [1, 7]: 24 ± 0.3 µM; IC50 ([2]; Table 4, biaryl analogues): 7.8 ± 0.5 µM; IC50 ([3]; Table 4, biaryl analogues): 37.9 ± 2.3 µM; IC50 [4, 7]: 2.6 ± 0.5 µM; IC50 ([5]; Table 4, biaryl analogues): 3.3 ± 0.6 µM; IC50 ([6]; Table 4, biaryl analogues): 44 ± 20.3 µM
CO[C@@H]1[C@@H](O)[C@@H](O)[C@H](Oc2ccc3cc(NC(=O)c4ccccc4[N+](=O)[O-])c(=O)oc3c2C)OC1(C)C [compound 15, N-(7-((2R,3R,4S,5R)-3,4-Dihydroxy-5-methoxy-6,6-dimethyltetrahydro-2H-pyran-2-yloxy)-8-methyl-2-oxo-2H-chromen-3-yl)-2-nitrobenzamide] | 44.3 ± 4.8 | 21.8 ± 0.8 | 28.7 ± 4.8 | 20.1 ± 4.7 | 16.8 ± 0.8 | – | –
COc1ccc(C(=O)Nc2cc3ccc(O[C@@H]4OC(C)(C)[C@H](OC)[C@@H](O)[C@H]4O)c(C)c3oc2=O)cc1-c1cccc2c1Sc1ccccc1S2 [compound 38, N-(7-((2R,3R,4S,5R)-3,4-Dihydroxy-5-methoxy-6,6-dimethyltetrahydro-2H-pyran-2-yloxy)-8-methyl-2-oxo-2H-chromen-3-yl)-4-methoxy-3-(thianthren-1-yl)benzamide] | – | – | – | – | – | – | IC50 [1, 7]: > 100 µM; IC50 ([2]; Table 4, biaryl analogues): > 100 µM; IC50 ([3]; Table 4, biaryl analogues): > 100 µM; IC50 [4, 7]: > 100 µM; IC50 ([5]; Table 4, biaryl analogues): 8.8 ± 0.6 µM; IC50 ([6]; Table 4, biaryl analogues): 1 ± 0.1 µM
CO[C@@H]1[C@@H](O)[C@@H](O)[C@H](Oc2ccc3cc(NC(=O)c4cc5ccccc5s4)c(=O)oc3c2C)OC1(C)C [compound 44, N-(7-((2R,3R,4S,5R)-3,4-Dihydroxy-5-methoxy-6,6-dimethyltetrahydro-2H-pyran-2-yloxy)-8-methyl-2-oxo-2H-chromen-3-yl)benzo[b]thiophene-2-carboxamide] | – | – | – | – | – | – | IC50 [1, 8]: 78.9 ± 3.5 µM; IC50 [3, 9]: 96.3 ± 3.7 µM; IC50 [4, 8]: 33.2 ± 0.7 µM; IC50 [5, 9]: > 100 µM; IC50 [6, 9]: 7.4 ± 2.1 µM
COc1cccc(C(=O)Nc2cc3ccc(O[C@@H]4OC(C)(C)[C@H](OC)[C@@H](O)[C@H]4O)c(C)c3oc2=O)c1 [compound 10, N-(7-((2R,3R,4S,5R)-3,4-Dihydroxy-5-methoxy-6,6-dimethyltetrahydro-2H-pyran-2-yloxy)-8-methyl-2-oxo-2H-chromen-3-yl)-3-methoxybenzamide] | 1.9 ± 0.6 | > 100 | 5.6 ± 2.5 | 2.8 ± 0.8 | 21.7 ± 2 | – | –
CO[C@@H]1[C@@H](O)[C@@H](O)[C@H](Oc2ccc3cc(NC(=O)c4ccncc4)c(=O)oc3c2C)OC1(C)C [compound 42, N-(7-((2R,3R,4S,5R)-3,4-Dihydroxy-5-methoxy-6,6-dimethyltetrahydro-2H-pyran-2-yloxy)-8-methyl-2-oxo-2H-chromen-3-yl)isonicotinamide] | – | – | – | – | – | – | IC50 [1, 8]: > 100 µM; IC50 [2, 9]: > 100 µM; IC50 [3, 9]: > 100 µM; IC50 [4, 8]: 19.2 ± 2.5 µM; IC50 [5, 9]: 34.8 ± 16 µM

More lines, main results first:

IC50 ([1]; Table 2, n = 3) [µM] | IC50 ([2]; Table 2) [µM] | IC50 ([3]; Table 2) [µM] | IC50 ([4]; Table 2, n = 3) [µM] | IC50 ([5]; Table 2) [µM] | IC50 ([6]; Table 2) [µM] | Compound | further results
13 ± 2.1 | 21.5 ± 1.4 | 20.6 ± 0.4 | 3.4 ± 0.6 | 72 ± 4 | 67.6 ± 9.7 | CO[C@@H]1[C@@H](O)[C@@H](O)[C@H](Oc2ccc3cc(NC(=O)c4ccccc4)c(=O)oc3c2C)OC1(C)C [compound 8, N-(7-((2R,3R,4S,5R)-3,4-Dihydroxy-5-methoxy-6,6-dimethyltetrahydro-2H-pyran-2-yloxy)-8-methyl-2-oxo-2H-chromen-3-yl)benzamide] | –
12.8 ± 2.3 | 13 ± 1.4 | 18 ± 3.8 | 1.6 ± 0.2 | 1.6 ± 0.5 | 11.6 ± 1.4 | CO[C@@H]1[C@@H](O)[C@@H](O)[C@H](Oc2ccc3cc(NC(=O)c4cccc(-c5ccccc5)c4)c(=O)oc3c2C)OC1(C)C [compound 13, N-(7-((2R,3R,4S,5R)-3,4-Dihydroxy-5-methoxy-6,6-dimethyltetrahydro-2H-pyran-2-yloxy)-8-methyl-2-oxo-2H-chromen-3-yl)biphenyl-3-carboxamide] | –
15.9 ± 1.9 | 15.6 ± 4.2 | 10.3 ± 0.9 | 5.9 ± 2.1 | 7.3 ± 0.9 | 17.1 ± 4.3 | COc1ccc(C(=O)Nc2cc3ccc(O[C@@H]4OC(C)(C)[C@H](OC)[C@@H](O)[C@H]4O)c(C)c3oc2=O)cc1 [compound 11, N-(7-((2R,3R,4S,5R)-3,4-Dihydroxy-5-methoxy-6,6-dimethyltetrahydro-2H-pyran-2-yloxy)-8-methyl-2-oxo-2H-chromen-3-yl)-4-methoxybenzamide] | –
> 100 | > 100 | 5.3 ± 1.3 | 35.8 ± 3.4 | – | 9.1 ± 0.5 | COc1ccccc1C(=O)Nc1cc2ccc(O[C@@H]3OC(C)(C)[C@H](OC)[C@@H](O)[C@H]3O)c(C)c2oc1=O [compound 9, N-(7-((2R,3R,4S,5R)-3,4-Dihydroxy-5-methoxy-6,6-dimethyltetrahydro-2H-pyran-2-yloxy)-8-methyl-2-oxo-2H-chromen-3-yl)-2-methoxybenzamide] | –
3.6 ± 2 | 16.3 ± 1.6 | 8.1 ± 6 | 1.6 ± 0.2 | 44.9 ± 31.6 | 19.3 ± 5.1 | CO[C@@H]1[C@@H](O)[C@@H](O)[C@H](Oc2ccc3cc(NC(=O)c4ccc(-c5ccccc5)cc4)c(=O)oc3c2C)OC1(C)C [compound 14, N-(7-((2R,3R,4S,5R)-3,4-Dihydroxy-5-methoxy-6,6-dimethyltetrahydro-2H-pyran-2-yloxy)-8-methyl-2-oxo-2H-chromen-3-yl)biphenyl-4-carboxamide] | –
> 100 | > 100 | > 100 | > 100 | – | > 100 | CO[C@@H]1[C@@H](O)[C@@H](O)[C@H](Oc2ccc3cc(NC(=O)c4cccc([N+](=O)[O-])c4)c(=O)oc3c2C)OC1(C)C [compound 16, N-(7-((2R,3R,4S,5R)-3,4-Dihydroxy-5-methoxy-6,6-dimethyltetrahydro-2H-pyran-2-yloxy)-8-methyl-2-oxo-2H-chromen-3-yl)-3-nitrobenzamide] | –
